The structures appear in SMILES notation.

The first test has as its system HIV-1 (IIIB) in MT-4 cells. The test is described as follows: MT-4 HIV assay. Format: cell-based. The following applies: HIV-1 (IIIB), MT-4 cells, 5 days, Cell Titer Glo; read-out: EC50. The essentials: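 Antiviral activity was read by Cell Titer Glo after a 5-day, 37 °C culture of MT-4 cells pre-infected with a 1:250 dilution of HIV-1 (IIIB). Compounds were tested as threefold dilution series in complete RPMI. Controls were no drug, mock infection and 5 uM AZT.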
On to `COC(=O)N[C@H](C(=O)N[C@@H](Cc1ccc(C#Cc2ccc(N3CC4CC(C3)N4C3COC3)nc2)cc1)[C@@H](O)CN(Cc1c(F)cc(-c2ccc(F)cn2)cc1F)NC(=O)[C@@H](NC(=O)OC)C(C)(C)C(F)(F)F)C(C)(C)C(F)(F)F` [Example 139, Methyl ((5S,10S,11S,14S)-8-(2,6-difluoro-4-(5-fluoropyridin-2-yl)benzyl)-16,16,16-trifluoro-10-hydroxy-15,15-dimethyl-11-(4-((6-(6-(oxetan-3-yl)-3,6-diazabicyclo[3.1.1]heptan-3-yl)pyridin-3-yl)ethynyl)benzyl)-3,6,13-trioxo-5-(1,1,1-trifluoro-2-methylpropan-2-yl)-2-oxa-4,7,8,12-tetraazahexadecan-14-yl)carbamateate], for which the EC50 is 3.92 nM.

The same test, now with this note: Human immunodeficiency virus 1, MT4, 120 h.
Take `COC(=O)N[C@H](C(=O)N[C@@H](Cc1ccc(C#Cc2ccc(N3CCN(C4(C)COC4)CC3)nc2)cc1)[C@@H](O)CN(Cc1c(F)cc(-c2ccn(C(F)F)n2)cc1F)NC(=O)[C@@H](NC(=O)OC)C(C)(C)C(F)(F)F)C(C)(C)C(F)(F)F` [Example 141, methyl ((5S,8S,9S,14S)-11-(4-(1-(difluoromethyl)-1H-pyrazol-3-yl)-2,6-difluorobenzyl)-16,16,16-trifluoro-9-hydroxy-15,15-dimethyl-8-(4-((6-(4-(3-methyloxetan-3-yl)piperazin-1-yl)pyridin-3-yl)ethynyl)benzyl)-3,6,13-trioxo-5-(1,1,1-trifluoro-2-methylpropan-2-yl)-2-oxa-4,7,11,12-tetraazahexadecan-14-yl)carbamate]: a half-maximal effect (EC50) was put at 6.68 nM.

Still in this test, the particulars now being: Human immunodeficiency virus 1, MT4, 120 h; HIV-1 (IIIB), MT-4 cells, 5 days, Cell Titer Glo; read-out: EC50.
Take `COC(=O)N[C@H](C(=O)N[C@@H](Cc1ccc(C#Cc2ccc(N3CC4CC(C3)N4C3COC3)nc2)cc1)[C@@H](O)CN(Cc1c(F)cc(-c2cc(F)ccn2)cc1F)NC(=O)[C@@H](NC(=O)OC)C(C)(C)C(F)(F)F)C(C)(C)C(F)(F)F` [Example 140, Methyl ((5S,10S,11S,14S)-8-(2,6-difluoro-4-(4-fluoropyridin-2-yl)benzyl)-16,16,16-trifluoro-10-hydroxy-15,15-dimethyl-11-(4-((6-(6-(oxetan-3-yl)-3,6-diazabicyclo [3.1.1]heptan-3-yl)pyridin-3-yl)ethynyl)benzyl)-3,6,13-trioxo-5-(1,1,1-trifluoro-2-methylpropan-2-yl)-2-oxa-4,7,8,12-tetraazahexadecan-14-yl)carbamate]: the EC50 was determined as 5.09 nM.
The same measure, in the same setting: for `COC(=O)N[C@H](C(=O)N[C@@H](Cc1ccc(C#Cc2ccc(N3CC4CCC(C3)N4[C@H]3CCOC3)nc2)cc1)[C@@H](O)CN(Cc1c(F)cc(-c2ccn(C(F)F)n2)cc1F)NC(=O)[C@@H](NC(=O)OC)C(C)(C)C(F)(F)F)C(C)(C)C(F)(F)F` [Example 142, Methyl ((5S,8S,9S,14S)-11-(4-(1-(difluoromethyl)-1H-pyrazol-3-yl)-2,6-difluorobenzyl)-16,16,16-trifluoro-9-hydroxy-15,15-dimethyl-3,6,13-trioxo-8-(4-((6-(8-((S)-tetrahydrofuran-3-yl)-3,8-diazabicyclo[3.2.1]octan-3-yl)pyridin-3-yl)ethynyl)benzyl)-5-(1,1,1-trifluoro-2-methylpropan-2-yl)-2-oxa-4,7,11,12-tetraazahexadecan-14-yl)carbamate] the value was 8.78 nM.
As for `COC(=O)N[C@H](C(=O)N[C@@H](Cc1ccc(C#Cc2ccc(N3CC4CCC(C3)N4[C@@H]3CCOC3)nc2)cc1)[C@@H](O)CN(Cc1c(F)cc(-c2ccn(C(F)F)n2)cc1F)NC(=O)[C@@H](NC(=O)OC)C(C)(C)C(F)(F)F)C(C)(C)C(F)(F)F` [Example 143, Methyl ((5S,8S,9S,14S)-11-(4-(1-(difluoromethyl)-1H-pyrazol-3-yl)-2,6-difluorobenzyl)-16,16,16-trifluoro-9-hydroxy-15,15-dimethyl-3,6,13-trioxo-8-(4-((6-(8-((R)-tetrahydrofuran-3-yl)-3,8-diazabicyclo[3.2.1]octan-3-yl)pyridin-3-yl)ethynyl)benzyl)-5-(1,1,1-trifluoro-2-methylpropan-2-yl)-2-oxa-4,7,11,12-tetraazahexadecan-14-yl)carbamate], the EC50 was found to be 7.79 nM.
As for `COC(=O)N[C@H](C(=O)N[C@@H](Cc1ccc(C#Cc2ccc(N3CC4CCC(C3)N4C3COC3)nc2)cc1)[C@@H](O)CN(Cc1ccc(-c2ccccn2)cc1Cl)NC(=O)[C@@H](NC(=O)OC)C(C)(C)C(F)(F)F)C(C)(C)C(F)(F)F` [Example 148, Methyl ((5S,8S,9S,14S)-11l-(2-chloro-4-(pyridin-2-yl)benzyl)-16,16,16-trifluoro-9-hydroxy-15,15-dimethyl-8-(4-((6-(8-(oxetan-3-yl)-3,8-diazabicyclo[3.2.1]octan-3-yl)pyridin-3-yl)ethynyl)benzyl)-3,6,13-trioxo-5-(1,1,1-trifluoro-2-methylpropan-2-yl)-2-oxa-4,7,11,12-tetraazahexadecan-14-yl)carbamate], the EC50 is 6.95 nM.
`COC(=O)N[C@H](C(=O)N[C@@H](Cc1ccc(C#Cc2ccc(N3CC4CCC(C3)N4C3COC3)nc2)cc1)[C@@H](O)CN(Cc1c(Cl)cc(-c2ccccn2)cc1Cl)NC(=O)[C@@H](NC(=O)OC)C(C)(C)C(F)(F)F)C(C)(C)C(F)(F)F` [Example 149, Methyl ((5S,8S,9S,14S)-11-(2,6-dichloro-4-(pyridin-2-yl)benzyl)-16,16,16-trifluoro-9-hydroxy-15,15-dimethyl-8-(4-((6-(8-(oxetan-3-yl)-3,8-diazabicyclo[3.2.1]octan-3-yl)pyridin-3-yl)ethynyl)benzyl)-3,6,13-trioxo-5-(1,1,1-trifluoro-2-methylpropan-2-yl)-2-oxa-4,7,11,12-tetraazahexadecan-14-yl)carbamate]: the EC50 is 8.3 nM.
Still for that read-out and setting: the figure for `COC(=O)N[C@H](C(=O)N[C@@H](Cc1ccc(C#Cc2cnc(N3CC4CCC(C3)N4C3COC3)c(C)c2)cc1)[C@@H](O)CN(Cc1c(F)cc(-c2ccn(C(F)F)n2)cc1F)NC(=O)[C@@H](NC(=O)OC)C(C)(C)C(F)(F)F)C(C)(C)C(F)(F)F` [Example 150, Methyl ((5S,8S,9S,14S)-11-(4-(1-(difluoromethyl)-1H-pyrazol-3-yl)-2,6-difluorobenzyl)-16,16,16-trifluoro-9-hydroxy-15,15-dimethyl-8-(4-((5-methyl-6-(8-(oxetan-3-yl)-3,8-diazabicyclo[3.2.1]octan-3-yl)pyridin-3-yl)ethynyl)benzyl)-3,6,13-trioxo-5-(1,1,1-trifluoro-2-methylpropan-2-yl)-2-oxa-4,7,11,12-tetraazahexadecan-14-yl)carbamate] is 5.86 nM.
Regarding `COC(=O)N[C@H](C(=O)N[C@@H](Cc1ccc(C#Cc2cnc(N3CC4CCC(C3)N4C3COC3)cc2C)cc1)[C@@H](O)CN(Cc1c(F)cc(-c2ccn(C(F)F)n2)cc1F)NC(=O)[C@@H](NC(=O)OC)C(C)(C)C(F)(F)F)C(C)(C)C(F)(F)F` [Example 151, Methyl ((5S,8S,9S,14S)-11-(4-(1-(difluoromethyl)-1H-pyrazol-3-yl)-2,6-difluorobenzyl)-16,16,16-trifluoro-9-hydroxy-15,15-dimethyl-8-(4-((4-methyl-6-(8-(oxetan-3-yl)-3,8-diazabicyclo[3.2.1]octan-3-yl)pyridin-3-yl)ethynyl)benzyl)-3,6,13-trioxo-5-(1,1,1-trifluoro-2-methylpropan-2-yl)-2-oxa-4,7,11,12-tetraazahexadecan-14-yl)carbamate], the EC50 was found to be 4.82 nM.

Source of the values: US10294234B2, “HIV inhibitor compounds” (priority 2017, dated 2019).
